From ChEMBL document CHEMBL5634191, “Vinylpyridine as a Tunable Covalent Warhead Targeting C797 in EGFR” (ACS Med Chem Lett, 2024)

Test: Lipophilicity, log D of the compound at pH 7.4
Format: physicochemical
Conditions: buffer

| logD | Compound |
| --- | --- |
| 4.6 | C=Cc1ccnc(Oc2cc3c(Nc4cccc(Cl)c4F)ncnc3cc2OC)c1 |
| 4.6 | C=Cc1cccc(Oc2cc3c(Nc4cccc(Cl)c4F)ncnc3cc2OC)n1 |
| 3.8 | COc1cc2ncnc(Nc3cccc(Cl)c3F)c2cc1Oc1ccnc(/C=C/CN2CCOCC2)c1 |
| 4.2 | COC/C=C/c1cc(Oc2cc3c(Nc4cccc(Cl)c4F)ncnc3cc2OC)ccn1 |
| 4.6 | C=C(C)c1cc(Oc2cc3c(Nc4cccc(Cl)c4F)ncnc3cc2OC)ccn1 |

Continued, molecule first:

| Compound | logD |
| --- | --- |
| COc1cc2ncnc(Nc3ccc(F)c(Cl)c3)c2cc1OCCCN1CCOCC1 [GEFITINIB] | 3.8 |
| CN(C)C/C=C/C(=O)Nc1cc2c(Nc3ccc(F)c(Cl)c3)ncnc2cc1O[C@H]1CCOC1 [AFATINIB] | 3.6 |
| C=CC(=O)N1CCC(Oc2cc3c(Nc4ccc(Cl)c(Cl)c4F)ncnc3cc2OC)CC1 [POZIOTINIB] | 4.3 |
